PMC10319115, “CL-705G: a novel chemical Kir6.2-specific KATP channel opener” (Frontiers in Pharmacology, 2023)

What was measured:
Kir6.2/SUR2A = system: T1, Kir6.2/SUR2A; assay: Tl+ flux (FluxOR II), initial rate, HEK-293; type: cell-based; details: opener; 10 min preincubation
T1 construct: gene KCNJ11; hetero-octamer

Kir3.1/Kir3.4 = biological target: T2, Kir3.1/Kir3.4 (Mus musculus, UniProt P48548+P63250); assay: two-electrode voltage clamp, Xenopus oocytes; type: cell-based; details: inhibition; high K+ (96 mM) pH 7.3
T2 construct: gene Kcnj3; heterotetramer expressed from cRNA in Xenopus laevis oocytes
T2 sequence (P63250 1-501): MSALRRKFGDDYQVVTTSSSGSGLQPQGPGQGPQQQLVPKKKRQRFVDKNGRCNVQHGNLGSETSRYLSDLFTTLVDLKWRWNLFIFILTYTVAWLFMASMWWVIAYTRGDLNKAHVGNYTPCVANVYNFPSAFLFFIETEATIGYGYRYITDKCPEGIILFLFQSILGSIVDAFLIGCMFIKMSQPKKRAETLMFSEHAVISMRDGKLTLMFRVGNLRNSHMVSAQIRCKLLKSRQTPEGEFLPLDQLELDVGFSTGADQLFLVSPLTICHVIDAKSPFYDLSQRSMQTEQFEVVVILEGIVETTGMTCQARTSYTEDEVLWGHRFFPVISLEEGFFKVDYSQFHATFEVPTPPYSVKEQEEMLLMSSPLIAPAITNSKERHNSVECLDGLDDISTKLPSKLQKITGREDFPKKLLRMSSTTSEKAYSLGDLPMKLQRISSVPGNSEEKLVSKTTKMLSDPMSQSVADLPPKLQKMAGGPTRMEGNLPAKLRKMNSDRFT
T2 sequence (P48548 1-419): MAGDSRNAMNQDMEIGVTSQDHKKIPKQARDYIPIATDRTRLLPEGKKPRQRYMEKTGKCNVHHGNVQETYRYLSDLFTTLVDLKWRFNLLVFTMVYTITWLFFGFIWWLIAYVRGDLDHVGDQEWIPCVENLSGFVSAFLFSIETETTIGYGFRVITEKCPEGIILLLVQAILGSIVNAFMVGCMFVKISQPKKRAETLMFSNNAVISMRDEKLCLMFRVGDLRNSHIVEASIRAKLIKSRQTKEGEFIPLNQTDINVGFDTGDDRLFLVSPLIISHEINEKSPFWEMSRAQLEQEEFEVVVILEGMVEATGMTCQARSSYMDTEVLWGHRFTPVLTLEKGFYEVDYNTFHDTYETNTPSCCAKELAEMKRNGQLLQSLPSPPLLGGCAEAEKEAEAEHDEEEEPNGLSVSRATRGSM

| SMILES | EC50 (Kir6.2/SUR2A) [µM] | % reduction of current at 100 μM (Kir3.1/Kir3.4) [%] |
| --- | --- | --- |
| CC(NC(=NC#N)Nc1ccncc1)C(C)(C)C (centres unmarked) [pinacidil] | 11 |  |
| O=C(c1cc(=O)[nH][nH]1)N1CCCC(CCc2ccccc2C(F)(F)F)C1 (centres unmarked) [CL-705G, 5-[(3-{2-[2-(trifluoromethyl)phenyl]ethyl}-1-piperidinyl)carbonyl]-1,2-dihydro-3H-pyrazol-3-one] |  | 17 |
